# What was measured:
# [1] = system: control sera (pooled serum of ten healthy LUMC hospital workers; commercial negative donor pooled serum from the Dutch bloodbank); type: binding, human; set-up: Binding of Control serum LUMC to linear peptides / Binding of Control serum Blood-bank to linear peptides / Binding of Control serum LUMC to looped peptides / Binding of Control Serum Blood-Bank to Looped peptides / Binding of Control serum LUMC to linear peptides of the protein M of SARS-CoV Urbani / Binding of Control serum Blood-bank to linear peptides of the protein M of SARS-CoV Urbani / Binding of Control serum LUMC to looped peptides of the protein M of SARS-CoV Urbani / Binding of Control Serum Blood-Bank to Looped peptides of the protein M of SARS-CoV Urbani: unit not given here
# [2] = system: rabbit serum obtained by immunizing a rabbit with the SARS-CoV strain Frankfurt 1; type: binding; set-up: Binding of a rabbit serum to linear peptides / Binding of a rabbit serum to looped peptides / Rabbit serum linear peptides / Rabbit serum looped peptides / Binding of a rabbit serum to linear peptides of protein N of SARS-CoV Urbani (Rabbit serum linear peptides) / Binding of a rabbit serum to looped/cyclic peptides of protein N of SARS-CoV Urbani (Rabbit serum looped peptides): unit not given here
# [3] = system: antibodies in sera from SARS patients (sera 1a, 1b, 2, 6, 37, 62, London, SARS-yellow, SARS-green); type: binding, human; set-up: Binding of serum 6 to linear peptides of protein X1 of SARS-CoV Urbani / Binding of serum 37 to linear peptides of protein X1 of SARS-CoV Urbani / Binding of serum 6 to looped/cyclic peptide (PEPSCAN-ELISA) / Binding of serum 37 to looped/cyclic peptide (PEPSCAN-ELISA) / Binding of serum 37 to looped/cyclic peptides of protein X1 of SARS-CoV Urbani / Binding of serum 6 to linear peptides of protein X2 / Binding of serum 37 to linear peptides of protein X2 / Binding of serum 37 to looped/cyclic peptides of protein X2 of SARS-CoV Urbani / Binding of serum 6 to linear peptides of protein M of SARS-CoV Urbani / Binding of serum 37 to linear peptides of protein M of SARS-CoV Urbani / Binding of serum 6 to looped/cyclic peptides of protein M of SARS-CoV Urbani / Binding of serum 37 to looped/cyclic peptides of protein M of SARS-CoV Urbani / Binding of serum 6 to linear peptides of protein X3 of SARS-CoV Urbani / Binding of serum 37 to linear peptides of protein X3 of SARS-CoV Urbani / Binding of serum 37 to looped/cyclic peptides of protein X3 of SARS-CoV Urbani / Binding of serum 6 to linear peptides of protein X4 of SARS-CoV Urbani / Binding of serum 37 to linear peptides of protein X4 of SARS-CoV Urbani / Binding of serum 37 to looped/cyclic peptides of protein X4 of SARS-CoV Urbani / Binding of serum 6 to linear peptides of protein X5 of SARS-CoV Urbani / Binding of serum 37 to linear peptides of protein X5 of SARS-CoV Urbani / Binding of serum 37 to looped/cyclic peptides of protein X5 of SARS-CoV Urbani / Binding of serum 6 to linear peptides of protein N of SARS-CoV Urbani / Binding of serum 37 to linear peptides of protein N of SARS-CoV Urbani / Binding of serum 6 to linear peptide (PEPSCAN-ELISA) / Binding of serum 1a to looped/cyclic peptides of protein N of SARS-CoV Urbani / Binding of serum 1b to looped/cyclic peptides of protein N of SARS-CoV Urbani / Binding of serum 2 to looped/cyclic peptides of protein N of SARS-CoV Urbani / Binding of serum 6 to looped/cyclic peptides of protein N of SARS-CoV Urbani / Binding of serum 37 to looped/cyclic peptides of protein N of SARS-CoV Urbani / Binding of serum 62 to looped/cyclic peptides of protein N of SARS-CoV Urbani / Binding of serum London to looped/cyclic peptides of protein N of SARS-CoV Urbani / Binding of serum SARS-green to looped/cyclic peptides of protein N of SARS-CoV Urbani: unit not given here
# [4] = system: recombinant human anti-SARS-CoV antibody 03-018; type: binding; set-up: Binding of antibody 03-018 to linear peptides of the N protein of SARS-CoV Urbani / Binding of antibody 03-018 to looped/cyclic peptides of the N protein of SARS-CoV Urbani: unit not given here
Sequence,Binding of Control Serum Blood-Bank to Looped peptides [1],Binding of Control serum Blood-bank to linear peptides [1],Binding of Control serum LUMC to linear peptides [1],Binding of Control serum LUMC to looped peptides [1],Binding of a rabbit serum to linear peptides of protein N of SARS-CoV Urbani (Rabbit serum linear peptides) [2],Binding of a rabbit serum to looped/cyclic peptides of protein N of SARS-CoV Urbani (Rabbit serum looped peptides) [2],Binding of serum 1a to linear peptides of protein N of SARS-CoV Urbani [3],Binding of serum 1a to looped/cyclic peptides of protein N of SARS-CoV Urbani [3],Binding of serum 1b to linear peptides of protein N of SARS-CoV Urbani [3],Binding of serum 1b to looped/cyclic peptides of protein N of SARS-CoV Urbani [3],Binding of serum 2 to linear peptides of protein N of SARS-CoV Urbani [3],Binding of serum 2 to looped/cyclic peptides of protein N of SARS-CoV Urbani [3],Binding of serum 6 to looped/cyclic peptides of protein N of SARS-CoV Urbani [3],Binding of serum 37 to looped/cyclic peptides of protein N of SARS-CoV Urbani [3],Binding of serum 62 to looped/cyclic peptides of protein N of SARS-CoV Urbani [3],Binding of serum London to looped/cyclic peptides of protein N of SARS-CoV Urbani [3],Binding of serum SARS-green to looped/cyclic peptides of protein N of SARS-CoV Urbani [3],Binding of serum SARS-yellow to looped/cyclic peptides of protein N of SARS-CoV Urbani [3],Binding of antibody 03-018 to linear peptides of the N protein of SARS-CoV Urbani [4],Binding of antibody 03-018 to looped/cyclic peptides of the N protein of SARS-CoV Urbani [4],also measured
RWYFYYLGTGPEASL,0.7,0.6,0.7,0.8,0.2,0.6,0.3,0.4,0.2,0.4,0.2,0.5,0.3,1.1,0.9,0.5,0.8,0.7,0.1,0.2,Binding of serum 6 to linear peptides of protein N of SARS-CoV Urbani [3]: 0.2; Binding of serum 37 to linear peptides of protein N of SARS-CoV Urbani [3]: 0.8; Binding of serum 62 to linear peptides of protein N of SARS-CoV Urbani [3]: 0.8; Binding of serum London to linear peptides of protein N of SARS-CoV Urbani [3]: 0.4; Binding of serum SARS-green to linear peptides of protein N of SARS-CoV Urbani [3]: 0.3; Binding of serum SARS-yellow to linear peptides of protein N of SARS-CoV Urbani [3]: 0.6
SDNGPQSNQRSAPRI,0.5,0.6,0.5,0.5,0.1,0.2,0.2,0.3,0.0,0.0,0.1,0.3,0.3,0.5,0.4,0.4,0.2,0.1,0.0,0.2,Binding of serum 6 to linear peptides of protein N of SARS-CoV Urbani [3]: 0.2; Binding of serum 37 to linear peptides of protein N of SARS-CoV Urbani [3]: 0.2; Binding of serum 62 to linear peptides of protein N of SARS-CoV Urbani [3]: 0.4; Binding of serum London to linear peptides of protein N of SARS-CoV Urbani [3]: 0.5; Binding of serum SARS-green to linear peptides of protein N of SARS-CoV Urbani [3]: 0.0; Binding of serum SARS-yellow to linear peptides of protein N of SARS-CoV Urbani [3]: 0.5
SGGGETALALLLLDR,0.7,0.7,0.6,0.7,0.2,0.7,–,0.4,–,0.2,–,0.5,0.3,0.7,0.7,0.5,0.1,0.7,0.1,0.2,Binding of serum 1a to linear peptide (PEPSCAN-ELISA) [3]: 0.3; Binding of serum 1b to linear peptide (PEPSCAN-ELISA) [3]: 0.1; Binding of serum 2 to linear peptide (PEPSCAN-ELISA) [3]: 0.2; Binding of serum 6 to linear peptide (PEPSCAN-ELISA) [3]: 0.2; Binding of serum 37 to linear peptide (PEPSCAN-ELISA) [3]: 0.7; Binding of serum 62 to linear peptide (PEPSCAN-ELISA) [3]: 0.7; Binding of serum London to linear peptide (PEPSCAN-ELISA) [3]: 0.4; Binding of serum SARS-green to linear peptide (PEPSCAN-ELISA) [3]: 0.1; Binding of serum SARS-yellow to linear peptide (PEPSCAN-ELISA) [3]: 0.5

# From patent US20070128217A1 (priority 2003, published 2007)
